From ChEMBL document CHEMBL1153928, “Novel N-substituted 2-phenyl-1-sulfonylamino-cyclopropane carboxylates as selective ADAMTS-5 (Aggrecanase-2) inhibitors” (Bioorg Med Chem Lett, 2009)
pIC50: −log10 of the molar value. Calls of active or inactive are those of the source. No cut-off for these calls is given here.

What was measured:
[1] = molecular target: T1, A disintegrin and metalloproteinase with thrombospondin motifs 5 (Homo sapiens, UniProt Q9UNA0); assay: Inhibition of recombinant aggrecanase 2
T1 sequence (Q9UNA0 whole entry): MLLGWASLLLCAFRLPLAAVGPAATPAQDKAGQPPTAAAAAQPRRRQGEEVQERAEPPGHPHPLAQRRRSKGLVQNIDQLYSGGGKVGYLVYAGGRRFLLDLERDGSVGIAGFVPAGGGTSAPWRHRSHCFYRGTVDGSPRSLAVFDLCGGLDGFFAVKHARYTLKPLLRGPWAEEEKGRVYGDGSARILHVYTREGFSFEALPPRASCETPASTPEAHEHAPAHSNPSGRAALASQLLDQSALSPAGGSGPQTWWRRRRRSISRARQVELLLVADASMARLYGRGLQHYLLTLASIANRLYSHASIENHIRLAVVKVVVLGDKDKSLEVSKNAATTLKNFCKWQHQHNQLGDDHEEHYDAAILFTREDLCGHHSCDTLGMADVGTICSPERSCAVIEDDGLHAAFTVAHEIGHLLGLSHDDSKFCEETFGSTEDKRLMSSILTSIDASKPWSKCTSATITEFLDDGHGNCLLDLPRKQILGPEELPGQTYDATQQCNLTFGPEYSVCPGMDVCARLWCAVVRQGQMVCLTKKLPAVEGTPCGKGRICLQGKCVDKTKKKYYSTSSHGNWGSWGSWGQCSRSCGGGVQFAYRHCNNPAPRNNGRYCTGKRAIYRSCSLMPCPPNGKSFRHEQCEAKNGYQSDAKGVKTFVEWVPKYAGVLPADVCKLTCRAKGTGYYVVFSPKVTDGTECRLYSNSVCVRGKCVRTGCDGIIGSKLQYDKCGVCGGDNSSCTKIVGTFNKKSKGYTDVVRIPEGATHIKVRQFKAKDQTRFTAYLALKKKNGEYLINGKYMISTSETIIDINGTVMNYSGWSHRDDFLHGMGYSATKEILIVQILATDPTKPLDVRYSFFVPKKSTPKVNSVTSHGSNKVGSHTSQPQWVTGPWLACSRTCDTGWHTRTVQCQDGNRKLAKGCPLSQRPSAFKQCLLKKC

[2] = molecular target: Disintegrin and metalloproteinase domain-containing protein 17 (Homo sapiens) (UniProt P78536); assay: Inhibition of TACE at 10 uM
[3] = molecular target: T2, Interstitial collagenase (Homo sapiens) (UniProt P03956); assay: Inhibition of MMP1 at 10 uM
T2 sequence (whole entry): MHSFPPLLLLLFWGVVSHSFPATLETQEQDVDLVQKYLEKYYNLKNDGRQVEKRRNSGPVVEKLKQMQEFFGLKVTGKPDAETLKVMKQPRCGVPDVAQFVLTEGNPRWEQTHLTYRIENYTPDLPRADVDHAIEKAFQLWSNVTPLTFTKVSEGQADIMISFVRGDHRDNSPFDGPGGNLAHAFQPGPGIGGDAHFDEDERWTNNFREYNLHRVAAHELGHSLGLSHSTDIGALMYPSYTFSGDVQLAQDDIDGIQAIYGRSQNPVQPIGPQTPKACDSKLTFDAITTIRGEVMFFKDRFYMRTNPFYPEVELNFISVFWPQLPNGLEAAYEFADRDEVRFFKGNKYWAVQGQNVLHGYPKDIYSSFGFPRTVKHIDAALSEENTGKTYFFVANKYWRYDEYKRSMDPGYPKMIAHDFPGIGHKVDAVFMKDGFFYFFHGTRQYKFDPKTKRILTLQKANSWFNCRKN

[4] = molecular target: T3, A disintegrin and metalloproteinase with thrombospondin motifs 5 (Homo sapiens) (UniProt Q9UNA0); assay: Inhibition of recombinant aggrecanase 2 at 10 uM
T3 sequence (whole entry): T1 sequence (Q9UNA0 whole entry)

Chain of Disintegrin and metalloproteinase domain-containing protein 17 (Homo sapiens) (P78536 whole entry, the tested form may be a part): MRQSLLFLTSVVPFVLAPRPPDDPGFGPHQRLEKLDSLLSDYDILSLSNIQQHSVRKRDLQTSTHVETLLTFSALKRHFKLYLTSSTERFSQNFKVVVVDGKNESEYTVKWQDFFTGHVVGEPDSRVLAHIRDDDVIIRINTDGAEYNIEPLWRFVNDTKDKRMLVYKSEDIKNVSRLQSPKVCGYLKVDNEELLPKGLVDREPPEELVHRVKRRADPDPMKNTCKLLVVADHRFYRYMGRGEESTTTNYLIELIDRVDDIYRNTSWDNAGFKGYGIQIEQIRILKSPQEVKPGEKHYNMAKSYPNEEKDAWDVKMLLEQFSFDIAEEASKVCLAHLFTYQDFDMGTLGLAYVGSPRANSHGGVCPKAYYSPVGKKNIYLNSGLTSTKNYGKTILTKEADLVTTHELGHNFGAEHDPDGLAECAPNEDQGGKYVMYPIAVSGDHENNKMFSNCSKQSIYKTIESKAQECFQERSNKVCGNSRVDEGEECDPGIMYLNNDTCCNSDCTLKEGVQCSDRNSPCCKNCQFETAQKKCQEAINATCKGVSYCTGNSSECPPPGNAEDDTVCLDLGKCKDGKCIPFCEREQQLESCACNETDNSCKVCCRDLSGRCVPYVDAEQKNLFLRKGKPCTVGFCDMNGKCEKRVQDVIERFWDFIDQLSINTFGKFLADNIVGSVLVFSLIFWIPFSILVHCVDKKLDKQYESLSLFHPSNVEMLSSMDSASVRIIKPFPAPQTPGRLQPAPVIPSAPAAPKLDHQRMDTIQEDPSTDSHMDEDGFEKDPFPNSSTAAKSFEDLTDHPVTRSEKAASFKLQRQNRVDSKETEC

Row | Compound | pIC50 [1] | Activity [2] | Activity [3] | inhibition [4] [%]
1 | COc1cccn(CCN([C@]2(C(=O)O)C[C@H]2c2ccccc2)S(=O)(=O)c2ccc(-c3ccc(Cl)cc3)cc2)c1=O | 7.11 | inactive | inactive | 
2 | O=C(O)[C@@H](Cc1ccccc1)NS(=O)(=O)c1ccc(-c2ccc(Cl)cc2)cc1 | 5.49 |  |  | 
3 | O=C(O)[C@@]1(N(CCc2ccncc2)S(=O)(=O)c2ccc(-c3ccc(Cl)cc3)cc2)C[C@H]1c1ccccc1 | 6.12 | inactive | inactive | 
4 | O=C(O)[C@@]1(N(CCn2ccnn2)S(=O)(=O)c2ccc(-c3ccc(Cl)cc3)cc2)C[C@H]1c1ccccc1 | 6.57 | inactive | inactive | 
5 | C[C@@](Cc1ccccc1)(C(=O)O)N(CCN1CCCC1=O)S(=O)(=O)c1ccc(-c2ccc(Cl)cc2)cc1 |  |  |  | 0.1
6 | O=C(O)[C@@]1(N(CCn2cnnn2)S(=O)(=O)c2ccc(-c3ccc(Cl)cc3)cc2)C[C@H]1c1ccccc1 | 6.57 | inactive | inactive | 
7 | O=C1CCC(=O)N1CCN([C@]1(C(=O)O)C[C@H]1c1ccccc1)S(=O)(=O)c1ccc(-c2ccc(Cl)cc2)cc1 | 6.51 | inactive | inactive | 
8 | COC(=O)c1cncn1CCN([C@]1(C(=O)O)C[C@H]1c1ccccc1)S(=O)(=O)c1ccc(-c2ccc(Cl)cc2)cc1 | 6.64 | inactive | inactive | 
9 | COCC#Cc1ccc(S(=O)(=O)N(CCN2CCCC2=O)[C@]2(C(=O)O)C[C@H]2c2ccccc2)cc1 |  |  |  | 2.9
10 | COC(=O)c1cn(CCN([C@]2(C(=O)O)C[C@H]2c2ccccc2)S(=O)(=O)c2ccc(-c3ccc(Cl)cc3)cc2)cn1 | 7.14 | inactive | inactive | 
11 | O=C1OCCN1CCN([C@]1(C(=O)O)C[C@H]1c1ccccc1)S(=O)(=O)c1ccc(-c2ccc(Cl)cc2)cc1 | 6.66 | inactive | inactive | 
12 | O=C(O)[C@@]1(N(CCn2cnnc2)S(=O)(=O)c2ccc(-c3ccc(Cl)cc3)cc2)C[C@H]1c1ccccc1 | 6.72 | inactive | inactive | 
13 | CN([C@@H](Cc1ccccc1)C(=O)O)S(=O)(=O)c1ccc(-c2ccc(Cl)cc2)cc1 |  |  |  | -0.12
14 | O=C1CCCCN1CCN([C@]1(C(=O)O)C[C@H]1c1ccccc1)S(=O)(=O)c1ccc(-c2ccc(Cl)cc2)cc1 | 6.68 | inactive | inactive | 
15 | O=C(O)[C@@]1(N(CCc2cccnc2)S(=O)(=O)c2ccc(-c3ccc(Cl)cc3)cc2)C[C@H]1c1ccccc1 | 6.54 | inactive | inactive | 
16 | O=C(O)[C@@H](Cc1ccccc1)N(CC1CCCCC1)S(=O)(=O)c1ccc(-c2ccc(Cl)cc2)cc1 |  |  |  | 22
17 | O=C(O)[C@@]1(N(CCn2nccn2)S(=O)(=O)c2ccc(-c3ccc(Cl)cc3)cc2)C[C@H]1c1ccccc1 | 6.59 | inactive | inactive | 
18 | O=C1OCCCN1CCN([C@]1(C(=O)O)C[C@H]1c1ccccc1)S(=O)(=O)c1ccc(-c2ccc(Cl)cc2)cc1 | 6.74 | inactive | inactive | 

Row | Compound | pIC50 [1] | Activity [2] | Activity [3] | inhibition [4] [%]
19 | O=C(O)[C@@]1(N(CCc2ccccn2)S(=O)(=O)c2ccc(-c3ccc(Cl)cc3)cc2)C[C@H]1c1ccccc1 | 6.09 | inactive | inactive | 
20 | O=C(O)[C@@]1(N(CCn2cnc3ncncc32)S(=O)(=O)c2ccc(-c3ccc(Cl)cc3)cc2)C[C@H]1c1ccccc1 | 7.15 | inactive | inactive | 
21 | CN(C)c1ccc(-c2ccc(S(=O)(=O)N(CCN3CCCC3=O)[C@]3(C(=O)O)C[C@H]3c3ccccc3)cc2)cc1 | 5.18 |  |  | 
22 | O=C(O)[C@@]1(N(CCn2cnc3cncnc32)S(=O)(=O)c2ccc(-c3ccc(Cl)cc3)cc2)C[C@H]1c1ccccc1 | 6.77 | inactive | inactive | 
23 | O=C1CCCN1CCN([C@]1(C(=O)O)C[C@H]1c1ccccc1)S(=O)(=O)c1ccc(-c2ccncc2)cc1 |  |  |  | 18
24 | O=C(O)[C@@H](Cc1ccccc1)N(CCc1ccccc1)S(=O)(=O)c1ccc(-c2ccc(Cl)cc2)cc1 | 5.14 |  |  | 
25 | O=C(O)[C@@H](Cc1ccccc1)N(CCN1CCCC1=O)S(=O)(=O)c1ccc(-c2ccc(Cl)cc2)cc1 | 5.80 |  |  | 
26 | O=C(O)[C@@H](Cc1ccccc1)N(CC1CC1)S(=O)(=O)c1ccc(-c2ccc(Cl)cc2)cc1 |  |  |  | 46
27 | O=C1CCCN1CCN([C@]1(C(=O)O)C[C@H]1c1ccccc1)S(=O)(=O)c1ccc(-c2ccc(Cl)cc2)nc1 | 5.96 |  |  | 
28 | O=C(O)[C@@]1(N(CCn2ccnc2)S(=O)(=O)c2ccc(-c3ccc(Cl)cc3)cc2)C[C@H]1c1ccccc1 | 6.49 | inactive | inactive | 
29 | CC(=O)Nc1ccc(-c2ccc(S(=O)(=O)N(CCN3CCCC3=O)[C@]3(C(=O)O)C[C@H]3c3ccccc3)cc2)cc1 | 5.35 |  |  | 
30 | O=C1CCCN1CCN([C@]1(C(=O)O)C[C@H]1c1ccccc1)S(=O)(=O)c1ccc(-c2ccc(Cl)cc2)cc1 | 6.70 | inactive | inactive | 
31 | O=C1CCCN1CCN([C@]1(C(=O)O)C[C@H]1c1ccccc1)S(=O)(=O)N1CC=C(c2ccc(Cl)cc2)CC1 | 6.06 |  |  | 
32 | O=C(O)[C@@]1(N(CCn2cncn2)S(=O)(=O)c2ccc(-c3ccc(Cl)cc3)cc2)C[C@H]1c1ccccc1 | 6.74 | inactive | inactive | 
33 | CN([C@H](Cc1ccccc1)C(=O)O)S(=O)(=O)c1ccc(-c2ccc(Cl)cc2)cc1 | 5.10 |  |  | 
34 | O=C1CCCN1CCN([C@]1(C(=O)O)C[C@H]1c1ccccc1)S(=O)(=O)c1ccc(C#CCO)cc1 |  |  |  | -1.5
35 | O=C(O)[C@@H](Cc1ccccc1)N(Cc1ccccc1)S(=O)(=O)c1ccc(-c2ccc(Cl)cc2)cc1 |  |  |  | 30
